Here are results for four compounds from article PMC7026418, “The kinase polypharmacology landscape of clinical PARP inhibitors” (Scientific Reports, 2020).

Targets include FGFR3(G697C) (Homo sapiens, UniProt P22607, G697C); LCK (Homo sapiens, UniProt P06239); SRMS (Homo sapiens, UniProt Q9H3Y6).
Common to all, as to assay: biochemical
Holding throughout (design): DiscoveRx KINOMEscan active site-directed competition binding; percent of control kinase bound to immobilised ligand

A further assay deals with T1, CDC2L5 (Homo sapiens, UniProt Q14004).
T1 construct: gene CDK13
T1 sequence (Q14004 whole entry): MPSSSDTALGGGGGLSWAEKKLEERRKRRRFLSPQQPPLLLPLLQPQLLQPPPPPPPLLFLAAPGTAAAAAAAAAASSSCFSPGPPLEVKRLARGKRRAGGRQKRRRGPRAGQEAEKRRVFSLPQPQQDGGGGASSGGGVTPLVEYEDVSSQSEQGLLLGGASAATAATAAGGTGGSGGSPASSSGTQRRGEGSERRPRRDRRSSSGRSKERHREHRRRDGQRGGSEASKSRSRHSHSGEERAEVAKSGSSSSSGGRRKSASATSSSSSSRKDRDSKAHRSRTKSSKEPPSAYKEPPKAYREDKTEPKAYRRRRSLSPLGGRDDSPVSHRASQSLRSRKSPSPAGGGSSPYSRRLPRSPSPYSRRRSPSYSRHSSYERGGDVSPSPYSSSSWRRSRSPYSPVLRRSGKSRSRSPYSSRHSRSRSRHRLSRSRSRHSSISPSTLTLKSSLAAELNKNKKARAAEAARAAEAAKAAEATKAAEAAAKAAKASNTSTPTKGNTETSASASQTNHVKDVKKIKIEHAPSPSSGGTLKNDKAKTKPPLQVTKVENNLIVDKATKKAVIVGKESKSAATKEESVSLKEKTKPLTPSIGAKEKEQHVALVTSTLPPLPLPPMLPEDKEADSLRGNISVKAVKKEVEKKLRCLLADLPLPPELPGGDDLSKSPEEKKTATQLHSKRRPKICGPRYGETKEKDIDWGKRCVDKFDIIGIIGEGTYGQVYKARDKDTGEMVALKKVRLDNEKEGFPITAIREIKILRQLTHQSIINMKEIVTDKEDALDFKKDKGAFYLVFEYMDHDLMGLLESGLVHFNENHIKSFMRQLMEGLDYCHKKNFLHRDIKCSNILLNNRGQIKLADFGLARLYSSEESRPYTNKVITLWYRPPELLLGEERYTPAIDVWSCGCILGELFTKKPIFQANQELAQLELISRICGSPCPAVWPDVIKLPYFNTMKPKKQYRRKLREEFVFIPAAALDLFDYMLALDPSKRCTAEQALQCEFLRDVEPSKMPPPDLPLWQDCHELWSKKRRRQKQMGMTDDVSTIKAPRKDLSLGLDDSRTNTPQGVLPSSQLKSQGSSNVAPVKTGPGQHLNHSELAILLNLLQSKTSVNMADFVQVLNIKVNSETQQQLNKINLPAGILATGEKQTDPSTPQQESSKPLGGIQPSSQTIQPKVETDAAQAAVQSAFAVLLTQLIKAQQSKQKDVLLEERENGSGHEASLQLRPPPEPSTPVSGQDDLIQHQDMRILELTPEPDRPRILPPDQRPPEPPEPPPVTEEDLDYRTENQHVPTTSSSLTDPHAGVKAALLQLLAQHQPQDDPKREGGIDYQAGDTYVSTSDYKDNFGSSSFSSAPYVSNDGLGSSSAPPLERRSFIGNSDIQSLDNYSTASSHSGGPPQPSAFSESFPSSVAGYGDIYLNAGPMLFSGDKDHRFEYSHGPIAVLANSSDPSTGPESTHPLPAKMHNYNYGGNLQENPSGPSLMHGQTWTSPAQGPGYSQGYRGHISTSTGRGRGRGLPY

A further assay has as its target T2, FLT3(N841I) (Homo sapiens, UniProt P36888, N841I).
T2 sequence (P36888 1-993 N841I): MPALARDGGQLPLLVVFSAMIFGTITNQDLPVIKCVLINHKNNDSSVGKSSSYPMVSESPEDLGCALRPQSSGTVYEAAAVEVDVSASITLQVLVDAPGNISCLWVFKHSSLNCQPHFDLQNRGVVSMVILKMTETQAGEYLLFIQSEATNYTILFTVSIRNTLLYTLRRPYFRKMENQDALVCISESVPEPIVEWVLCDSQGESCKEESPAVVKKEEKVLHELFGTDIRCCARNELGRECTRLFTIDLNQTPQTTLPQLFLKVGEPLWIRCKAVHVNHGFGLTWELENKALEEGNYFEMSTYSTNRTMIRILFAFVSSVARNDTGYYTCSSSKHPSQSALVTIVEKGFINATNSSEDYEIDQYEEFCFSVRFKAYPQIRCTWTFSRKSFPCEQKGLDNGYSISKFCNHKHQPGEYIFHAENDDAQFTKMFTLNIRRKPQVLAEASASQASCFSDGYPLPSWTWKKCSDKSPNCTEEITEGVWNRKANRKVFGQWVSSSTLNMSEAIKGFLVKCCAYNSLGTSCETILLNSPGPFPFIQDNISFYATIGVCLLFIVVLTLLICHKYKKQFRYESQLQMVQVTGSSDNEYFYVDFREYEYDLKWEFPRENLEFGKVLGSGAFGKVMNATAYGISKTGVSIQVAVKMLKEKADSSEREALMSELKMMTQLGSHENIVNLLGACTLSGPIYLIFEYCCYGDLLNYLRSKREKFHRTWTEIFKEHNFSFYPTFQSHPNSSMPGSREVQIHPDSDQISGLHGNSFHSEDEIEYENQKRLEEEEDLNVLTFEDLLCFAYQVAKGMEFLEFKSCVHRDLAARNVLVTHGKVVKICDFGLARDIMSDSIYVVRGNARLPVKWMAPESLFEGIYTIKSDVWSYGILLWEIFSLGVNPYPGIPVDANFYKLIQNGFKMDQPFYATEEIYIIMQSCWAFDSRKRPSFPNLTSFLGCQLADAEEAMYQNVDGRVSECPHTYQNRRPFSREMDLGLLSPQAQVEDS

The next assay deals with T3, MEK5 (Homo sapiens, UniProt Q13163).
T3 construct: gene MAP2K5
T3 sequence (Q13163 1-448): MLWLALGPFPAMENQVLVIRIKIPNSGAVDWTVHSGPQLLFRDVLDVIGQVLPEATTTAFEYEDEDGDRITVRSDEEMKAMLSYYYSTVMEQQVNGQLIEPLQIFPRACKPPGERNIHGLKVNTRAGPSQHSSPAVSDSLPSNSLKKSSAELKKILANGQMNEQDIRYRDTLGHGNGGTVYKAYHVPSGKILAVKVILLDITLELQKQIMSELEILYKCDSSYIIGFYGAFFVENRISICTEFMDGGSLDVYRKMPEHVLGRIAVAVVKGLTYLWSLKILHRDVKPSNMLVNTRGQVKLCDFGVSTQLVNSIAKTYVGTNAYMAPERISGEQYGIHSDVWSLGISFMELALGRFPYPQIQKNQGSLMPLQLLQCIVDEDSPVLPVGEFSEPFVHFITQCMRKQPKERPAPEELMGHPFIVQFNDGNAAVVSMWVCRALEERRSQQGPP

The target of the next assay is T4, PFTK1 (Homo sapiens, UniProt O94921).
T4 construct: gene CDK14
T4 sequence (O94921 whole entry): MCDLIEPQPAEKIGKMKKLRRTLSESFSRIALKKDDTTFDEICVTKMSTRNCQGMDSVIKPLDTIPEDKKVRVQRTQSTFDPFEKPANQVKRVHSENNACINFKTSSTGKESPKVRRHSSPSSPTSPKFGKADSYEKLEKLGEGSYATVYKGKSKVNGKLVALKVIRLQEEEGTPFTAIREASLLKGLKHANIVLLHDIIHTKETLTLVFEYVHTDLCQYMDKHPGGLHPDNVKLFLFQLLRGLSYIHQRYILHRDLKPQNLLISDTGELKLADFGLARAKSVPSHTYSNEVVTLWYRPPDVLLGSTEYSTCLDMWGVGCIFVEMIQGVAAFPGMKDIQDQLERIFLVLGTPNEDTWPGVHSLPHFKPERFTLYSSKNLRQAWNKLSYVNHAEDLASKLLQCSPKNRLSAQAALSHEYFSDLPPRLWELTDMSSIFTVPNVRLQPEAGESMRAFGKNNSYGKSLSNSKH

Another assay concerns the target T5, p38-gamma (Homo sapiens, UniProt P53778).
T5 construct: gene MAPK12
T5 sequence (P53778 1-367): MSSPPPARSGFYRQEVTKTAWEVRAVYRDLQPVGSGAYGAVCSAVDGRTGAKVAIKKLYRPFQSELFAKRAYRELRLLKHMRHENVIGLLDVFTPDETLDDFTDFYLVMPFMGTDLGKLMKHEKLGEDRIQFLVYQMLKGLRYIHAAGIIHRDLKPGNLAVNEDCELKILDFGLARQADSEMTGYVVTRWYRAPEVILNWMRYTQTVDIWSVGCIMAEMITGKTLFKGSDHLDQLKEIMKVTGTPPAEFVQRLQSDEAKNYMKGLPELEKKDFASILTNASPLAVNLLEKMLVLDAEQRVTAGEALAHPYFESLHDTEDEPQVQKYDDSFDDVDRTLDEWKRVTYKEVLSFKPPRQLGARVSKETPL

The mark [1] stands for this setting: read-out: Niraparib (MK-4827) / %Ctrl @ 10000nM.
[2] abbreviates: read-out: Talazoparib (BMN 673) / %Ctrl @ 10000nM.
Where [3] appears, read: read-out: Rucaparib / %Ctrl @ 10000nM, binding competition, % of control.
The mark [4] stands for this setting: read-out: Olaparib / %Ctrl @ 10000nM.

Like-named read-outs stand apart in the source and are kept apart here.

FGFR3(G697C), sequence (P22607 whole entry G697C): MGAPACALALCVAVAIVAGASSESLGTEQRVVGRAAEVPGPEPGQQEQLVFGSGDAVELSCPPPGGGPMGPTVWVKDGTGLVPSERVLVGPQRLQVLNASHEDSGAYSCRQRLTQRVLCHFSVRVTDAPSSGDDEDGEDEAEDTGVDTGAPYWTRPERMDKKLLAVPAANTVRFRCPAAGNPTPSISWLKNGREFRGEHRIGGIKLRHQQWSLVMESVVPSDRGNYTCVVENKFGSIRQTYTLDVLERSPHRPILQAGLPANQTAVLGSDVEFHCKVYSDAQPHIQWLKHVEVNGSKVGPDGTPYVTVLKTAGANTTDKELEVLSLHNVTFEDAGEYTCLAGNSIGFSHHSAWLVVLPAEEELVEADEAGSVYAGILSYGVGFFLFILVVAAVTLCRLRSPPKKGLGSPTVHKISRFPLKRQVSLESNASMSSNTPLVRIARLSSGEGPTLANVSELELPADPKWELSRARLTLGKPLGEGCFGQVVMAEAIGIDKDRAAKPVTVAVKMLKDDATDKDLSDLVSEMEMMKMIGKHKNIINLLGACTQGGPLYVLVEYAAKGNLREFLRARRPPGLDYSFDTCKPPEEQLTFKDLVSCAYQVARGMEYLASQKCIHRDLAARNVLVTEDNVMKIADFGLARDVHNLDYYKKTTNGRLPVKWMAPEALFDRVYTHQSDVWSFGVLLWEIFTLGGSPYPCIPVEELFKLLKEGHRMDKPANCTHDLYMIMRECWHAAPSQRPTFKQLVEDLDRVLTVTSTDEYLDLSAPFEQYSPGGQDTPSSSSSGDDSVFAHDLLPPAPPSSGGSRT
SRMS, sequence (Q9H3Y6 whole entry): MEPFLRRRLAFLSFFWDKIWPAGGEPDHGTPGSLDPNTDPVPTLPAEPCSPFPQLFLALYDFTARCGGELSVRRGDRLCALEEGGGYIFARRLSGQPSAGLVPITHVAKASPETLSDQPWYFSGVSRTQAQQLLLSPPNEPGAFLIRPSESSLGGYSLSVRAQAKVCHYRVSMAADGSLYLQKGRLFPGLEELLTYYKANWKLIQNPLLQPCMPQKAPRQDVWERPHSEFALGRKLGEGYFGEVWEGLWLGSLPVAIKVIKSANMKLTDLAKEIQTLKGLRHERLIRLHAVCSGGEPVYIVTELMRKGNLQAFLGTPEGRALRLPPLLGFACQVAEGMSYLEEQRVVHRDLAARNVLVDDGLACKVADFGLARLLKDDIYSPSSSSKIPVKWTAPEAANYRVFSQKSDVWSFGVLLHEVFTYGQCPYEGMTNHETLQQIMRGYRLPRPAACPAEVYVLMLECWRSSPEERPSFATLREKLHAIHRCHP
LCK, sequence (P06239 whole entry): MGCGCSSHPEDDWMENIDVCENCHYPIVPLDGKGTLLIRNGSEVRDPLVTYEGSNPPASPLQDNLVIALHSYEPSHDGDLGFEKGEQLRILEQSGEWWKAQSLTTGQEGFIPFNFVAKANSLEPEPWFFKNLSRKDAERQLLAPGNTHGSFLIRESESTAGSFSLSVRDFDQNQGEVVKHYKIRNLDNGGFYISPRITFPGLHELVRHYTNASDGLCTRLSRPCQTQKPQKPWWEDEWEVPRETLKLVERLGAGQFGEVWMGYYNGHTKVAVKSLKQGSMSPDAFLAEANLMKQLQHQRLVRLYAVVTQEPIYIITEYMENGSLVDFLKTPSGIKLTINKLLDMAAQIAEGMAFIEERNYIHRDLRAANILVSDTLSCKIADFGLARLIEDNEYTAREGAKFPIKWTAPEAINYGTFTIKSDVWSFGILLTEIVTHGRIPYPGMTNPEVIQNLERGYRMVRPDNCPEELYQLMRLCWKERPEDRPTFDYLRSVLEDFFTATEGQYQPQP

Turning to `NC(=O)c1cccc2cn(-c3ccc([C@@H]4CCCNC4)cc3)nc12` [Niraparib], the percent of control binding at 10 µM at CDC2L5 (setting [1]) worked out at 100%; at FGFR3(G697C) (setting [1]) it was 90%; on FLT3(N841I) (setting [1]), 77%; at LCK (setting [1]), 82%; on MEK5 (setting [1]), 66%; at PFTK1 (setting [1]) it was 88%. The percent of control binding at 10 µM turned out to be 100% on SRMS (setting [1]) and 48% on p38-gamma (setting [1]).
For `Cn1ncnc1[C@H]1c2n[nH]c(=O)c3cc(F)cc(c23)N[C@@H]1c1ccc(F)cc1` [Talazoparib], the percent of control binding at 10 µM at CDC2L5 (setting [2]) was found to be 100%; on FGFR3(G697C) (setting [2]), 92%; on FLT3(N841I) (setting [2]), 100%; at LCK (setting [2]) it was 90%; at MEK5 (setting [2]) it was 51%; at PFTK1 (setting [2]) it was 89%. Also, the percent of control binding at 10 µM at SRMS (setting [2]) was determined as 100%; on p38-gamma (setting [2]), 60%.
`CNCc1ccc(-c2[nH]c3cc(F)cc4c3c2CCNC4=O)cc1` [Rucaparib]: the percent of control binding at 10 µM at CDC2L5 (setting [3]) worked out at 98%; on FGFR3(G697C) (setting [3]), 100%; on LCK (setting [3]) it was 95%; on MEK5 (setting [3]), 70%; on PFTK1 (setting [3]), 86%; on SRMS (setting [3]) it was 79%. Further, the percent of control binding at 10 µM at p38-gamma (setting [3]) was determined as 58%. For the same compound, on FLT3(N841I) (binding competition, % of control), the “Rucaparib / %Ctrl @ 10000nM” value amounted to 64%.
Take `O=C(c1cc(Cc2n[nH]c(=O)c3ccccc23)ccc1F)N1CCN(C(=O)C2CC2)CC1` [Olaparib]: the percent of control binding at 10 µM at CDC2L5 (setting [4]) amounted to 99%; at FGFR3(G697C) (setting [4]) it was 98%; at FLT3(N841I) (setting [4]) it was 95%; on LCK (setting [4]) it was 100%; at MEK5 (setting [4]) it was 77%; at PFTK1 (setting [4]), 100%. For the same compound, the percent of control binding at 10 µM on SRMS (setting [4]) worked out at 92%; at p38-gamma (setting [4]), 83%.
